COC(=O)C1=C(C)NC(C)=C(C(=O)OCC(C)C)C1c1ccccc1[N+](=O)[O-] (stereo not given)
solubility (mole fraction)
Details | 278.15 K | 283.15 K | 288.15 K | 293.15 K | 298.15 K | 303.15 K | 308.15 K | 313.15 K | 318.15 K
in acetonitrile | 0.00826 | 0.00998 | 0.0121 | 0.0145 | 0.0173 | 0.0204 | 0.0241 | 0.0281 | 0.0329
in ethyl acetate | 0.016 | 0.0185 | 0.0214 | 0.0248 | 0.0286 | 0.0324 | 0.037 | 0.0419 | 0.0477
in isopropanol | 0.00483 | 0.00578 | 0.00688 | 0.0081 | 0.00956 | 0.0111 | 0.0129 | 0.015 | 0.0172
in n-propanol | 0.00367 | 0.00448 | 0.00553 | 0.00673 | 0.00811 | 0.0097 | 0.0115 | 0.0136 | 0.0162
in water | 3.79e-06 | 5.04e-06 | 6.75e-06 | 8.67e-06 | 1.17e-05 | 1.51e-05 | 1.94e-05 | 2.47e-05 | 3.09e-05

Source: BigSolDB 2.1
